Measured values published in patent US20240034753A1, “THERAPEUTIC PEPTIDES” (COHBAR, INC., priority 2020, published 2024).

How the values were obtained:
C2C12 Mouse Myoblasts = experiment: Glucose utilization (glucose remaining in medium); type: cell-based; conditions: metformin 1 mM, 18-22 hours
Method: The effect of the peptides on glucose metabolism can be assessed using an assay of glucose utilization in cultured cells such as mouse myoblasts. Peptides were initially prepared as 10 mM stock in DMSO and used at a final concentration of 10 μM (0.1% DMSO). C2C12 mouse myoblast cell line was purchased from American Type Culture Collection (Manassas, VA). C2C12 cultures were maintained at 37° C. in a humidified atmosphere of 5% CO2/95% air with medium changes every second day. C2C12 cells were grown in DMEM (1 g/L glucose) supplemented with 10% FBS with 100 IU/ml penicillin and 100 μg/ml streptomycin. C2C12 cells were seeded at 7,000 cells per well on 96-well plates and cultured to confluence. Once the cell reached confluence the media was changed to DMEM (1 g/L glucose) supplemented with 2% HS with 100 IU/ml penicillin and 100 μg/ml streptomycin and maintained at 37° C. in a humidified atmosphere of 5% CO2/95% air. 5 days post-induction of differentiation fresh DMEM (1 g/L glucose) supplemented with 2% HS with 100 IU/ml penicillin and 100 μg/ml streptomycin was added to cultures. Cells were maintained at 37° C. in a humidified atmosphere of 5% CO2 and 95% air for 5 hours. After 5 hours test peptides at 10 μM or controls (0.5 mM or 1 mM metformin in 1% DMSO) prepared in fresh differentiation medium were added to cells and the cultures were maintained at 37° C. in a humidified atmosphere of 5% CO2/95% air for 18-22 hours. At the end of the incubation culture media was removed from the cells and the remaining glucose concentration was measured using a Glucose Assay kit (Abcam) according to the manufacturer's instructions, using a Cytation 3 plate reader at 570 nm (BioTek, Winooski, VT). Glucose concentrations in the medium were calculated relative to 0.1% DMSO treated control cells. The relative standard deviation of the result for the 0.1% DMSO treated control was <20%. Metformin was used as a positive control for reduction of glucose levels (increased glucose utilization glucose levels for treatment with metformin (1 mM) treatment were <20% of the 0.1% DMSO treated control value. The results are reported in Table 11.

[1] = test system: SH-SY5Y Neuroblastoma Cells; experiment: ATP levels (CellTiter-Glo); type: cell-based, human; conditions: staurosporine 1 μM, 18-20 hours
Method: The effect of the peptides on cellular metabolism can be assessed using an assay of ATP levels in cultured cells such as human neuroblastoma cells. Peptides were initially prepared as 10 mM stock in DMSO and used at a final concentration of 10 μM (0.1% DMSO). […] CellTiter-Glo® Assay kit was purchased from Promega. SH-SY5Y human bone marrow neuroblastoma cell line was purchased from American Type Culture Collection (Manassas, VA) and licensed from Memorial Sloan-Kettering Cancer Center (New York, NY). SH-SY5Y cells were grown in DMEM/F12 medium supplemented with 10% FBS with 100 IU/ml penicillin and 100 μg/ml streptomycin. Cultures were maintained at 37° C. in a humidified atmosphere of 5% CO2/95% air. SH-SY5Y cells were seeded at 30,000 cells per well on 96-well plates. […] ATP levels were determined using a CellTiter-Glo Assay kit (Promega) according to the manufacturer's instructions. Luminescence for each sample well on the plate was measured using a Cytation 3 plate reader (BioTek, Winooski, VT). Activity was calculated relative to 0.1% DMSO treated control. The relative standard deviation of the result for the 0.1% DMSO treated control was <5%.

[2] = PrestoBlue cell viability assay; type: cell-based; conditions: human; read-out: Cell viability, % of background corrected DMSO control value
Method: The effect of the peptides on cell viability can be assessed in cultured cells using suitable assay of viability such as the PrestoBlue® assay (Thermo Fisher Scientific, Waltham, MA). Peptides were initially prepared as 10 mM stock in DMSO and tested at a final concentration of 10 μM (0.1% DMSO). […] PrestoBlue Assay Reagent was purchased from Thermo Fisher Scientific. A172 human brain glioblastoma cell line was purchased from American Type Culture Collection (Manassas, VA). A172 cells were grown in DMEM supplemented with 10% FBS with 100 IU/ml penicillin and 100 μg/ml streptomycin. Cultures were maintained at 37° C. in a humidified atmosphere of 5% CO2/95% air. A172 cells were seeded at 8,000 cells per well on 96-well plates. […] Cell viability was determined using a PrestoBlue Assay reagent […] according to the manufacturer's instructions. Absorption for each sample well on the plate was measured using a Cytation 3 plate reader at 560 nm and 590 nm (BioTek, Winooski, VT). Activity was calculated relative to 0.1% DMSO untreated control. Treatment with 0.1% DMSO alone was used as the cell viability activity control. The relative standard deviation of the DMSO control was <5%.

3T3-L1 Mouse Adipocytes = experiment: Free fatty acid levels in cultured mouse adipocytes stimulated with isoproterenol; type: cell-based; conditions: insulin 100 nM, 3 hours with 1 nM isoproterenol
Method: The effect of the peptides on fatty acid metabolism can be assessed using an assay of free fatty acid levels in cultured cells such as mouse adipocytes. Peptides were initially prepared as 10 mM stock in DMSO and used at a final concentration of 10 μM (0.1% DMSO). […] Mouse 3T3-L1 cells purchased from ZenBio were seeded at 3,000 cells per well in 96-well plates in Pre-adipocyte Medium (Zen-Bio) and grown to confluence at 37° C. in a humidified atmosphere of 5% CO2/95% air. Two days after confluence, cells were placed in Adipocyte Differentiation Medium (Zen-Bio) and cultured for three additional days at 37° C. in a humidified atmosphere of 5% CO2/95% air. The culture media was then replaced with Adipocyte Maintenance Medium (Zen-Bio) and the cells maintained for an additional 9-12 days at 37° C. in a humidified atmosphere of 5% CO2/95% air with partial medium replacement every other day. Following 12-15 days of differentiation, test peptides were added at a final concentration of 10 μM in 0.1% DMSO and incubated for 20-22 hours in Adipocyte Maintenance Medium at 37° C. in a humidified atmosphere of 5% CO2/95% air. After 20-22 hours, 1 nM isoproterenol was added to all wells except untreated controls and test peptides were replenished. Insulin at 100 nM was added to control wells. Cells were incubated for 3 hours in Assay Buffer (Zen-Bio) at 37° C. in a humidified atmosphere of 5% CO2/95% air. Free fatty acid concentrations in the media were determined using a Free Fatty Acid Assay kit (Zen-Bio) according to the manufacturer's instructions using a Cytation 3 plate reader at 540 nm (BioTek, Winooski, VT). Absorbance values were corrected for untreated background and expressed relative to isoproterenol treated cells. Treatment with isoproterenol (1 nM) alone was used as the free fatty acid level stimulatory control. The relative standard deviation of the isoproterenol control was <10%. […] Free fatty acid levels for insulin (100 nM) treatment were <5% of the isoproterenol control value.

Molecule: CN(C)C(=N)N=C(N)N [Metformin, reference compound]
- Glucose levels, % of the 0.1% DMSO treated control value (C2C12 Mouse Myoblasts): < 20%

Molecule: CN[C@@H]1C[C@H]2O[C@@](C)([C@@H]1OC)n1c3ccccc3c3c4c(c5c6ccccc6n2c5c31)C(=O)NC4 [Staurosporine, reference compound]
- ATP levels, % of the 0.1% DMSO treated control value [1]: < 5%
- viability at 1 µM [2]: < 75%

Molecule: Insulin [reference compound]
- Free fatty acid levels, % of the isoproterenol control value (3T3-L1 Mouse Adipocytes): < 5%
